Non-standard residues stand in square brackets, D forms with d. No end group written: not given here. *: point of attachment. FITC = O=C1OC2(c3ccc(O)cc3Oc3cc(O)ccc32)c2ccc(NC(=S)*)cc21; pY = N[C@@H](Cc1ccc(OP(=O)(O)O)cc1)C(=O)O
Key:
Tregs (CD4+CD25+FoxP3+) = experiment: Treg differentiation in total mouse T cells stimulated with anti-CD3; type: cell-based; details: anti-CD3, 5 to 24 hours; compared to vehicle alone or nonspecific peptide
Description: To ensure that the peptide easily enters cells and that its cellular localization can be monitored, a C-terminal TAT peptide (GRKKRRQRRRPQ) (SEQ ID NO:3) and an N-terminal fluorescent FITC dye were incorporated, respectively, and named it SLP76pTYR peptide ([…]). SLP76pTYR peptide (FITC Dye ^132NEEEEAPVEDDADpYEPPPSNDEEA^155-TAT) (SEQ ID NO:5) and non-specific control peptide (FITC Dye-[…]-TAT) (SEQ ID NO:6) were synthesized by Genscript Inc (Piscataway, NJ). These peptides were initially dissolved in 3% ammonia water to a final concentration of 10 mg/mL and then further diluted into PBS to a final concentration of 0.1 mg/mL. Fresh splenocytes were isolated from WT mice, and T cells were generated from splenocytes as previously described (Baker et al., 2001). […] Cells were examined for the presence of FITC by microscopy using a Leica DMi8 microscope equipped with an infinity total internal reflection fluorescence (TIRF) and DIC modules, a Lumencor SOLA SE II light box, a 150 mW 488 (GFP) laser and filter cube, a 100x/1.47 NA objective, and an Andor iXon Life 897 EMCCD camera. […]

SLP76: ITK signaling = experiment: Western blot of signaling proteins in human T cells from PBMC stimulated with anti-CD3 (OKT3); type: cell-based; details: vs vehicle alone
Description: Western blotting: For protein analysis, T cells were either nonstimulated, or stimulated with anti-CD3 and anti-CD28 for 24 hours overnight, and were lysed with freshly prepared lysis buffer (RIPA Buffer (Fisher Scientific cat #PI89900)+cOmplete Protease Inhibitor Cocktail (Sigma-Aldrich; cat #11697498001)) and centrifuged for 10 minutes at 14000 rpm at 4° C. Protein aliquots of 70 μg of protein were loaded on a 12-18% denaturing polyacrylamide gel and transferred to nitrocellulose membranes for immunoblot analysis using antibodies specific to proteins of interest.
Human Samples: According to our IRB protocol (1140566-4), blood samples were obtained by vein puncture, and T cells were isolated from peripheral blood mononuclear cells (PBMC) of regular healthy donors. T cells were isolated from patient and healthy donor samples by Ficoll-Hypaque density centrifugation. The final product was resuspended at 3×10^6 cells/ml in media and stimulated with OKT-3/anti-CD3 ([…]; Ortho Bio-Tech) and anti-human CD28 ([…]; Biolegend; cat #302902) presence of […] of protamine sulfate and 1 mg/ml SLP76pTYR or vehicle for five minutes. T cell lysates were used in western blot analysis.
ITK deficiency is known to enhance the development of regulatory T cells (Tregs) (Elmore et al., 2020, Owen et al., 2019) so the peptide inhibitor was tested to determine whether inhibition of the ITK: SLP76Y145 interactions using SLP76pTYR would induce Tregs. First, the frequency of Tregs was examined by expression of CD4^+ and FoxP3^+ (FIG. 18A). Next, total mouse T cells were stimulated with anti-CD3 (Sugie et al., 2004) in the presence of either SLP76pTYR, nonspecific peptide, or vehicle alone for 5 to 24 hours, and cells were harvested and examined for the presence of Tregs (CD4^+CD25^+FoxP3^+). […] Next, the effects of SLP76pTYR peptide on human PBMC samples from healthy human patients was investigated. T cells from these patients were stimulated with anti-CD3 (OKT3) (Karimi et al., 2005) for 5 minutes in the presence of SLP76pTYR or vehicle alone. […] No differences in stimulated or unstimulated total human AKT (FIG. 18E and FIG. 28H) was observed, providing a showing that the SLP76pTYR peptide has an impact on signaling pathways downstream of SLP76 in both mouse and human T cells. […] Next, the ability of SLP76pTYR peptide to affect the production of proinflammatory cytokines in human PBMCs was investigated. T cells from healthy human were stimulated with anti-CD3 (OKT3) and anti-CD28 in the presence of SLP76pTYR or vehicle alone, along with Brefeldin A. T cells incubated with SLP76pTYR or vehicle alone were also examined in the presence of PMA+lonomycin and Brefeldin A for 6 hours.
More specifically, FIGS. 18A-18F depict Novel peptide SLP76pTYR specifically targets SLP76: ITK signaling and enhances Treg cell development. (FIG. 18A) Murine CD4^+ T cells were examine for total CD4+ and FOXP3 expression prior to treatment with SLP76pTYR. n=3, and one representative experiment is shown. (FIG. 18B) Total T cells stimulated in the presence of SLP76pTYR, nonspecific peptide, or vehicle alone were examined for total CD4 cells that are FoxP3^+. n=3, and one representative experiment is shown. (FIG. 18C) Quantification of three experiments as in (A) (FIG. 18D) Cell lysates were obtained from mouse T cells stimulated with anti-CD3 and anti-CD28 in the presence of SLP76pTYR, or vehicle alone. […]

**Q.** For “FITC Dye ^132NEEEEAPVEDDADpYEPPPSNDEEA^155-TAT ({FITC}-NEEEEAPVEDDAD[pY]EPPPSNDEEAGRKKRRQRRRPQ) [SLP76pTYR]”, which “differentiation of Treg cells” value (Tregs (CD4+CD25+FoxP3+)) is on record?
**A.** Significantly enhanced differentiation of Treg cells

**Q.** What about the “phosphorylation of ERK, stimulated” value (SLP76: ITK signaling; anti-CD3 (OKT3) for 5 minutes) of the same substance?
**A.** reduced phosphorylation of PLCγ1 and ERK

**Q.** And the “phosphorylation of PLCγ1, stimulated” value (SLP76: ITK signaling; anti-CD3 (OKT3) for 5 minutes)?
**A.** reduced phosphorylation of PLCγ1 and ERK

**Q.** What about the “non-stimulated phospho ERK” value (SLP76: ITK signaling; non-stimulated T cells) of the same substance?
**A.** No differences in non-stimulated phospho PLCγ1 and ERK were observed

**Q.** What about the “non-stimulated phospho PLCγ1” value (SLP76: ITK signaling; non-stimulated T cells) of the same substance?
**A.** No differences in non-stimulated phospho PLCγ1 and ERK were observed

**Q.** And the “total AKT and stimulated or unstimulated phospho AKT” value (SLP76: ITK signaling)?
**A.** No differences in total AKT or either stimulated or unstimulated phospho AKT was observed

From patent publication US12729381B2, “Methods and compositions for inactivating interleukin-2-inducible t-cell kinase (ITK)” (priority 2020, dated 2026)
